Experimental data published in patent US10683272B2 (THE JOHNS HOPKINS UNIVERSITY, priority 2014, dated 2020).

Legend:
[1] = tested on: PSMA+ PC-3 PIP and PSMA− PC-3 flu tumors; experiment: small animal PET-CT imaging; format: in vivo, NOD/SCID mice; settings: PET-CT
Procedure: Mice (n=3 for ^86Y-4 or ^86Y-6 and n=2 for ^86Y-5) were injected via the tail vein with 3.33-6.21 MBq (90-168 μCi) of radiotracer formulated in 100 μL of saline at pH ˜7. […] At different time points, anesthetized individual mice were placed in the prone position on the scanner gantry and secured with medical tape while the anesthesia flow rate was increased to 0.8 L/min. Images were reconstructed using the FORE/2D-OSEM method (two iterations, 16 subsets) and included correction for radioactive decay, scanner dead time, and scattered radiation. Partial volume correction (PVC) was not performed. After each PET scan, a CT scan was acquired for anatomic co-registration. To facilitate PET and CT image co-registration, a special animal bed was employed which fits both the PET and CT scanners. The animals were under anesthesia and immobilized when moving between scanners as well as during both scans. The reconstructed PET and CT images were then manually co-registered through rigid transformation, by aligning natural landmarks (such as the animal limbs and the bed contour) using the AMIDE software (from sourceforge.net/amide).
Dynamic, whole-body PET and CT images were acquired on an eXplore VISTA small-animal PET (GE Healthcare, Little Chalfont, Buckinghamshire, UK) and an X-SPECT small SPECT/CT system (Gamma Medica Ideas, Northridge, Calif.), respectively.

[2] = baboon PET imaging and pharmacokinetics; format: in vivo, Papio anubis (baboon)
Description: A male Papio anubis (8 y, 27.1 kg) was used to study the biodistribution of ^86Y-6. The baboon was positioned supine during image acquisition. For attenuation correction a low-dose CT image was acquired immediately before the first and last PET images. PET and CT images were co-registered across time points using a Hermes workstation (Hermes Medical Solutions, Greenville, S.C.). Fourteen source organ contours were delineated on the CT with the aid of fused PET/CT images. Decay-corrected mean activity concentrations (Bq/g) were extracted for each source organ from the PET images. Contours were drawn on the PET images of the kidneys, renal cortices, and prostate. The decay-corrected total activity per organ quantified within the PET images had nearly one-to-one correspondence with the administered radioactivity for the first six time points (1 h or less), which confirmed that the administered radioactivity was fully accounted for on the PET images, after which the total amount was less than the administered amount due to voiding. The total amount of radioactivity quantified in each of the PET images was used to obtain the whole-body retention kinetics.
Nine static PET images were acquired at 5, 10, 15, 20, 35 min, 1, 2, 3.5 and 23 h after intravenous administration of 80.7 MBq (2.2 mCi) of ^86Y-6 as a bolus. Images were acquired in 2D mode on a Discovery Rx VCT scanner (GE Healthcare).
For each time-point, the activity concentration (in Bq/cm^3) was measured in each of the 14 delineated organs and multiplied by the organ volume to obtain the total activity per time point per organ. The measured values were then decay-corrected and divided by the baboon organ mass, determined by the CT density and volume from the drawn contours, and the injected radioactivity to obtain the fraction of initial radioactivity per gram (FIA/g) for each time point and each organ. The baboon FIA/g values were then converted to human FIA (per organ) using the following equation (Schwartz et al., 2011; Woodard et al., 1975): […]
That approach assumes that the concentration of activity in a particular tissue relative to the overall concentration in the whole body is preserved across species (i.e., organ concentration/total body concentration is the same for baboon and man). The resulting human FIA values were plotted as a function of time (nine data points) for each organ and fit to a bi-exponential expression: FIA(t)=A1.e^−(λ1^bio^.t)+A2.e^−(Δ2^bio^.t) (2)

[3] = bi-exponential fit, listed as [^86Y]6
[4] = whole-body retention kinetics fit

O=C([O-])CN1CCN(CC(=O)[O-])CCN(CC(=O)[O-])C(Cc2ccc(NC(=S)NCCCCNC(=O)CCCCCCC(=O)NCCCC[C@H](NC(=O)N[C@@H](CCC(=O)O)C(=O)O)C(=O)O)cc2)CN(CC(=O)[O-])CC1.[86Y+3] (stereo partly shown) [^86Y-6]
earliest time of clear delineation of PSMA+ PC-3 PIP tumor [1]: 15 min
percent of kidney radioactivity cleared in the rapid phase ([2]; baboon): Sixty-eight
percent of renal cortex radioactivity cleared in the rapid phase ([2]; baboon): 66%
highest uptake in kidneys ([2]; baboon, about 25 min post-injection): 8 % ID/g
Brain, biological half-life of A1 ([2]; bi-exponential fit): 0.71 h
Brain, biological half-life of A2 ([2]; bi-exponential fit): 8.71 h
Brain, fitted parameter A1 ([2]; bi-exponential fit): 0.53 % ID
Brain, fitted parameter A2 ([2]; bi-exponential fit): 0.11 % ID
Heart, biological half-life of A1 ([2]; bi-exponential fit): 0.29 h
Heart, biological half-life of A2 ([2]; bi-exponential fit): 6.49 h
Heart, fitted parameter A1 ([2]; bi-exponential fit): 1.55 % ID
Heart, fitted parameter A2 ([2]; bi-exponential fit): 0.29 % ID
Kidneys, biological half-life of A1 ([2]; bi-exponential fit): 0.84 h
Kidneys, biological half-life of A2 ([2]; bi-exponential fit): 16.6 h
Kidneys, fitted parameter A1 ([2]; bi-exponential fit): 6.36 % ID
Kidneys, fitted parameter A2 ([2]; bi-exponential fit): 2.98 % ID
Large intestine, biological half-life of A1 ([2]; bi-exponential fit): 0.25 h
Large intestine, biological half-life of A2 ([2]; bi-exponential fit): 5.97 h
Large intestine, fitted parameter A1 ([2]; bi-exponential fit): 0.45 % ID
Large intestine, fitted parameter A2 ([2]; bi-exponential fit): 0.30 % ID
Liver, biological half-life of A1 ([2]; bi-exponential fit): 0.38 h
Liver, biological half-life of A2 ([2]; bi-exponential fit): 7.71 h
Liver, fitted parameter A1 ([2]; bi-exponential fit): 4.77 % ID
Liver, fitted parameter A2 ([2]; bi-exponential fit): 1.52 % ID
Lungs, biological half-life of A1 ([2]; bi-exponential fit): 0.42 h
Lungs, biological half-life of A2 ([2]; bi-exponential fit): 6.29 h
Lungs, fitted parameter A1 ([2]; bi-exponential fit): 2.78 % ID
Lungs, fitted parameter A2 ([2]; bi-exponential fit): 1.27 % ID
Muscle, biological half-life of A1 ([2]; bi-exponential fit): 1.98 h
Muscle, biological half-life of A2 ([2]; bi-exponential fit): 69.31 h
Muscle, fitted parameter A1 ([2]; bi-exponential fit): 14.98 % ID
Muscle, fitted parameter A2 ([2]; bi-exponential fit): 0.56 % ID
Pancreas, biological half-life of A1 ([2]; bi-exponential fit): 0.66 h
Pancreas, biological half-life of A2 ([2]; bi-exponential fit): 10.60 h
Pancreas, fitted parameter A1 ([2]; bi-exponential fit): 0.24 % ID
Pancreas, fitted parameter A2 ([2]; bi-exponential fit): 0.05 % ID
Prostate, biological half-life of A1 ([2]; bi-exponential fit): 0.67 h
Prostate, biological half-life of A2 ([2]; bi-exponential fit): 5.58 h
Prostate, fitted parameter A1 ([2]; bi-exponential fit): 0.02 % ID
Prostate, fitted parameter A2 ([2]; bi-exponential fit): 0.02 % ID
Renal cortex, biological half-life of A1 ([2]; bi-exponential fit): 1.1 h
Renal cortex, biological half-life of A2 ([2]; bi-exponential fit): about 19 h
Renal cortex, fitted parameter A1 ([2]; bi-exponential fit): 4.23 % ID
Renal cortex, fitted parameter A2 ([2]; bi-exponential fit): 2.16 % ID
Salivary glands, biological half-life of A1 ([2]; bi-exponential fit): 1.56 h
Salivary glands, biological half-life of A2 ([2]; bi-exponential fit): 4.47 h
Salivary glands, fitted parameter A1 ([2]; bi-exponential fit): 0.30 % ID
Salivary glands, fitted parameter A2 ([2]; bi-exponential fit): 0.08 % ID
Small intestine, biological half-life of A1 ([2]; bi-exponential fit): 0.26 h
Small intestine, biological half-life of A2 ([2]; bi-exponential fit): 10.17 h
Small intestine, fitted parameter A1 ([2]; bi-exponential fit): 0.24 % ID
Small intestine, fitted parameter A2 ([2]; bi-exponential fit): 0.10 % ID
Spleen, biological half-life of A1 ([2]; bi-exponential fit): 1.49 h
Spleen, biological half-life of A2 ([2]; bi-exponential fit): 18.74 h
Spleen, fitted parameter A1 ([2]; bi-exponential fit): 0.12 % ID
Spleen, fitted parameter A2 ([2]; bi-exponential fit): 0.04 % ID
Stomach, biological half-life of A1 ([2]; bi-exponential fit): 0.46 h
Stomach, biological half-life of A2 ([2]; bi-exponential fit): 6.14 h
Stomach, fitted parameter A1 ([2]; bi-exponential fit): 0.15 % ID
Stomach, fitted parameter A2 ([2]; bi-exponential fit): 0.09 % ID
Kidneys, biological half-life of A2 [2, 3]: 16.62 h
Renal cortex, biological half-life of A2 [2, 3]: 19.19 h
WB retention, biological half-life of A1 [2, 4]: 5.62 h
WB retention, fitted parameter A1 [2, 4]: 100.00 % ID
